# Entries after “also recorded” stand apart in the source; their conditions may differ.
# Columns and labels:
# [1] = test system: fibroblastic cells (IPF lung fibroblasts, cardiac fibroblasts, dermal fibroblasts, renal mesangial cells, LX2 hepatic stellate cell line); assay: Procollagen and fibronectin (ECM) secretion from fibroblastic cells, ELISA; assay type: cell-based
# Source text: For example, as described herein, CRV431 can regulate oncogenes, and have anti-oncogenic activities. CRV431 can decrease production of the extracellular matrix (ECM) molecules, collagen and fibronectin, from fibroblastic cells derived from five cell types, including lung fibroblasts from a patient with idiopathic pulmonary fibrosis (“IPF”), cardiac fibroblasts, dermal (skin) fibroblasts, renal mesangial cells, and the LX2 hepatic stellate cell line. It is known that IPF is an aggressive fibrotic disease in tremendous need of new treatments. […] The extent of inhibition was similar whether or not the cells were stimulated with the profibrotic agent, transforming growth factor-beta (TGFβ), consistent with direct effects on ECM synthesis.
# [2] = test system: human precision cut liver slices (PCLS); assay: Sirius red histological staining of PCLS (tissue fibrosis); assay type: cell-based
# Experimental: (§1) PCLS were obtained from 5 human donors who underwent resection of liver cancer. Replicate slices were collected from healthy margins of the resections and cultured for 4 or 6 days depending on the experimental protocol. In the Nonstimulation Protocol slices were cultured for 6 days and treated for the entire period with DMSO vehicle or 5 μM CRV431. In the Stimulation Protocol slices were rested for 1 day and then administered the cytokines, TGFβ and PDGF-BB, for 3 days to stimulate inflammation and fibrosis. DMSO vehicle, CRV431 (1 and 5 μM), Alk5i (10 μM), obeticholic acid (5 μM), elafibranor (5 μM), resmetirom (5 μM), and Aramchol (5 μM) were administered individually as drug treatments in the Stimulation Protocol concurrent with TGFβ+PDGF-BB. Culture medium treatments were replaced daily.
# (b) Sirius red histological staining. […] Sirius red was quantified morphometrically in the histological sections as the percentage area with Sirius red staining in 10 sections from each treatment. In the Nonstimulation Protocol the quantity of Sirius red staining was expressed relative to the vehicle group. In the Stimulation Protocol the quantity of Sirius red staining was expressed relative to nonstimulated PCLS (0%) and TGFβ+PDGF-BB-stimulated+vehicle PCLS (100%). Results are shown in FIG. 1B (Sirius red staining for tissue fibrosis).
# [3] = test system: human precision cut liver slices (PCLS); assay: Gene expression in PCLS by RT-PCR; assay type: cell-based; details: collagen1α1, αSMA, TIMP1, IL-6, MCP-1
# Experimental: as §1
# (c) Gene expression by RT-PCR. RNA was isolated from duplicate liver slices per treatment at the end of the experiments and evaluated by RT-PCR for 5 markers of inflammation and fibrosis: MCP-1, IL-6, TIMP1, αSMA, and collagen 1α1. β actin was used as a reference gene to calculate relative levels of each target gene RNA. […] Results are shown in FIG. 1C (gene expression by RT-PCR).
# [4] = test system: liver tumors (likely hepatocellular carcinoma); assay: Liver tumor burden in streptozotocin/high-fat diet NASH mice; assay type: in vivo, C57BL/6J male mice
# Experimental: NASH was initiated in 2-day-old C57BL/6J male mice by intraperitoneal injection with […] streptozotocin (S0130; Sigma-Aldrich) to disrupt pancreatic β cells, induce diabetes, and promote adiposity in the liver. Mice were weaned at 3 weeks of age and begun on a high-fat diet with 60% kcal fat (D12492N; Research Diets) for the duration of the studies. Additionally, mice with a regular diet (D12450KN; Research Diets) and without streptozotocin were included as negative controls. CRV431 was dissolved in a self-microemulsifying drug vehicle and then diluted with PBS and administered daily by oral gavage at 50 mg/kg per day. The start time and duration of vehicle and CRV431 treatments varied depending on the study.
# In two separate experiments, tumor burden at the end of treatment was assessed by the number of tumors (FIGS. 11A and 12A) and a composite score based on the number and size of tumors (0-7 scale; FIGS. 11B and 12B).
# [5] = 50 mg/kg per day oral gavage, weeks 20 to 30
smiles,measurement,setting,value
CC[C@@H]1NC(=O)[C@H]([C@H](O)[C@H](C)CCCCCCNC(C)=O)N(C)C(=O)[C@H](C(C)C)N(C)C(=O)[C@H](CC(C)C)N(C)C(=O)[C@H](CC(C)C)N(C)C(=O)[C@@H](C)NC(=O)[C@H](C)NC(=O)[C@H](CC(C)C)N(C)C(=O)[C@H](C(C)C)NC(=O)[C@H](CC(C)C)N(C)C(=O)[C@@H](C)N(C)C1=O [CRV431],procollagen and fibronectin secretion,"[1]; ELISA, with or without TGFβ stimulation",dose-dependently decreased procollagen and fibronectin secretion from all cell types
same,cell viability,[1]; clinically relevant concentrations,without causing any reduction in cell viability
same,decrease of ECM production,"[1]; clinically relevant concentrations, collagen and fibronectin",up to 55%
same,tissue fibrosis vs vehicle-treated slices,"[2]; 6 days of culture, absence of exogenous TGFβ+PDGF-BB",less fibrosis than vehicle-treated slices
same,prevention of TGFβ+PDGF-BB-induced tissue fibrosis,"[2]; Stimulation Protocol, compared with other NASH drug candidates",most effective of five NASH drug candidates
same,RNA levels of inflammation and fibrosis markers by qRT-PCR,[3],"reductions in RNA levels of collagen1α1, αSMA, TIMP1, IL-6, and MCP-1; also recorded: decreased the mean daily secretion and gene expression of all markers"
same,decrease of tumor burden (score combining tumor number and size),[4]; [5],52%
same,livers lacking tumors,[4]; [5],2 of 10
same,number of liver tumors vs vehicle,[4]; [5],half the number of tumors
same,tumor size vs vehicle,[4]; [5],smaller tumors on average
same,"Tumor number, mean","[4]; 50 mg/kg/day, end of treatment",4.80
same,"Tumor score, mean (0-7 scale)","[4]; 50 mg/kg/day, end of treatment",2.40

# Source: US20210269479A1, “USE OF CY[…] FOR TREATING CANCER” (Hepion Pharmaceuticals, Inc., priority 2020, published 2021)
